Values of other authors as cited in patent publication US8679534B2, “HMG-CoA reductase inhibitor extended release formulation” (Andrx Labs, LLC, priority 1997, dated 2014).

System: blood serum cholesterol level
Conditions: background statement

CC[C@H](C)C(=O)O[C@H]1C[C@@H](C)C=C2C=C[C@H](C)[C@H](CC[C@@H]3C[C@@H](O)CC(=O)O3)[C@H]21 [Lovastatin, lovastatin]
lowering of the blood serum cholesterol level: 30-40%
